# Experimental data taken from US20250388605A1, “HETEROBIFUNCTIONAL COMPOUNDS AND METHODS OF TREATING DISEASE” (Halda Therapeutics OpCo, Inc., priority 2022, published 2025).
# Legend:
# BRD4-BD1 = target: T1, BRD4-BD1 (Homo sapiens, UniProt O60885); test: Binding affinity to BRD4-BD1 (bromoKdELECT assay); settings: 11-point 3-fold dilution series
# T1 construct: made in house; host or cells: T7 phage grown in an E. coli host derived from the BL21 strain
# Method: (§1) Compounds were tested using a bromoKdELECT assay. T7 phage strains displaying bromodomains were grown in parallel in 24-well blocks in an E. coli host derived from the BL21 strain. E. coli were grown to log-phase and infected with T7 phage from a frozen stock (multiplicity of infection=0.4) and incubated with shaking at 32° C. until lysis (90-150 minutes). The lysates were centrifuged (5,000×g) and filtered ([…]) to remove cell debris. Streptavidin-coated magnetic beads were treated with biotinylated small molecule or acetylated peptide ligands for 30 minutes at room temperature to generate affinity resins for bromodomain assays. The liganded beads were blocked with excess biotin and washed with blocking buffer (SeaBlock (Pierce), 1% BSA, 0.05% Tween 20, 1 mM DTT) to remove unbound ligand and to reduce nonspecific phage binding. Binding reactions were assembled by combining bromodomains, liganded affinity beads, and test compounds in 1× binding buffer (17% SeaBlock, 0.33×PBS, 0.04% Tween 20, 0.02% BSA, 0.004% Sodium azide, 7.4 mM DTT). Test compounds were prepared as 1000× stocks in 100% DMSO. Kds were determined using an 11-point 3-fold compound dilution series with one DMSO control point. All compounds for Kd measurements are distributed by acoustic transfer (non-contact dispensing) in 100% DMSO. The compounds were then diluted directly into the assays such that the final concentration of DMSO was 0.09%. All reactions performed in polypropylene 384-well plates. Each was a final volume of 0.02 ml. The assay plates were incubated at room temperature with shaking for 1 hour and the affinity beads were washed with wash buffer (1×PBS, 0.05% Tween 20). The beads were then resuspended in elution buffer (1×PBS, 0.05% Tween 20, 2 M non-biotinylated affinity ligand) and incubated at room temperature with shaking for 30 minutes. The bromodomain concentration in the eluates was measured by qPCR.
# [1] = test system: T-Rex 293 cell line SC3 cells lacking increased expression of androgen receptor protein; test: Cellular growth inhibition, T-Rex 293 SC3 cells without doxycycline (no increased androgen receptor expression), CellTiter-Glo; format: cell-based; settings: T-Rex 293 SC3 cells not exposed to doxycycline (no increased androgen receptor expression), 72 hours
# How it was run: (§2)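 Doxycycline (10 ng/mL) was either included or omitted to toggle wild-type androgen receptor expression in SC3 cells, a T-Rex 293 clone, grown in stripped-serum, phenol red-free medium. After 72 hours with compound, viable cells were quantified by CellTiter-Glo 2.0.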
# VCaP cells = test: Cellular growth inhibition assay for VCaP cells, CellTiter-Glo; format: cell-based, human; settings: 72 hours
# How it was run: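 GI50 values come from four-parameter curve fits of luminescence data normalized to a zero baseline. Compound, in medium with 0.5% DMSO, was added one day after plating and left for 72 h before CellTiter-Glo 2.0 addition.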
# BRD4-BD2 = target: T2, BRD4-BD2 (Homo sapiens, UniProt O60885); test: Binding affinity to BRD4-BD2 (bromoKdELECT assay); settings: 11-point 3-fold dilution series
# T2 construct: made in house; host or cells: T7 phage grown in an E. coli host derived from the BL21 strain
# Method: as §1, with “2 μM” for “2 M”
# [2] = test system: T-Rex 293 cell line SC3 cells having increased expression of androgen receptor protein due to exposure to doxycycline; test: Cellular growth inhibition, T-Rex 293 SC3 cells with doxycycline (increased androgen receptor expression), CellTiter-Glo; format: cell-based; settings: T-Rex 293 SC3 cells with 10 ng/mL doxycycline (increased androgen receptor expression), 72 hours, CellTiter-Glo 2.0
# How it was run: as §2
SMILES,Kd (BRD4-BD1),GI50 (VCaP cells; Homo sapiens),Kd (BRD4-BD2),GI50 (VCaP cells),GI50 [1],GI50 [2]
CN(c1ccc(Oc2cccc(OCCOC3CCN(c4ncc(C(=O)N[C@H]5C(C)(C)[C@H](Oc6ccc(C#N)c(Cl)c6)C5(C)C)cn4)CC3)c2)c(-c2cn(C)c(=O)c3[nH]ccc23)c1)S(=O)(=O)C1CC1 [Compound I-49],> 2500 nM,< 500 nM,500 to 2500 nM,–,> 3000 nM,< 500 nM
CN(c1ccc(Oc2cccc(OCCOC3CCN(c4ncc(C(=O)N[C@H]5C(C)(C)[C@H](Oc6ccc(C#N)c(Cl)c6)C5(C)C)cn4)CC3)c2)c(-c2cn(C)c(=O)c3[nH]ccc23)c1)S(C)(=O)=O [Compound I-51],> 2500 nM,< 500 nM,500 to 2500 nM,–,< 500 nM,< 500 nM
CCS(=O)(=O)N(C)c1ccc(Oc2cccc(OCCOC3CCN(c4ncc(C(=O)N[C@H]5C(C)(C)[C@H](Oc6ccc(C#N)c(Cl)c6)C5(C)C)cn4)CC3)c2)c(-c2cn(C)c(=O)c3[nH]ccc23)c1 [Compound I-52],> 2500 nM,< 500 nM,500 to 2500 nM,–,< 500 nM,< 500 nM
CCS(=O)(=O)Nc1ccc(Oc2cccc(OCCOC3CCN(c4ncc(C(=O)N[C@H]5C(C)(C)[C@H](Oc6ccc(C#N)c(Cl)c6)C5(C)C)cn4)CC3)c2F)c(-c2cn(C)c(=O)c3[nH]ccc23)c1 [Compound I-64],> 2500 nM,< 500 nM,< 50 nM,–,< 500 nM,< 500 nM
CCS(=O)(=O)Nc1ccc(OC(COCCOC2CCN(c3ncc(C(=O)N[C@H]4C(C)(C)[C@H](Oc5ccc(C#N)c(Cl)c5)C4(C)C)cn3)CC2)C2CC2)c(-c2cn(C)c(=O)c3[nH]ccc23)c1 (some centres unmarked) [Compound I-67],50 to 500 nM,< 500 nM,50 to 500 nM,–,< 500 nM,< 500 nM
"CCS(=O)(=O)Nc1ccc(OCC(OCCOC2CCN(c3ncc(C(=O)N[C@H]4C(C)(C)[C@H](Oc5ccc(C#N)c(Cl)c5)C4(C)C)cn3)CC2)C2CC2)c(-c2cn(C)c(=O)c3[nH]ccc23)c1 (some centres unmarked) [Compound I-68, N-((1r, 3r)-3-(3-chloro-4-cyanophenoxy)-2,2,4,4-tetramethylcyclobutyl)-2-(4-(2-(1-cyclopropyl-2-(4-(ethylsulfonamido)-2-(6-methyl-7-oxo-6,7-dihydro-1H-pyrrolo[2,3-c]pyridin-4-yl)phenoxy)ethoxy)ethoxy)piperidin-1-yl)pyrimidine-5-carboxamide]",50 to 500 nM,< 500 nM,50 to 500 nM,–,> 3000 nM,< 500 nM
CN(c1ccc(Oc2cccc(OCCN3CCN(c4ncc(C(=O)N[C@H]5C(C)(C)[C@H](Oc6ccc(C#N)c(Cl)c6)C5(C)C)cn4)CC3)c2)c(-c2cn(C)c(=O)c3[nH]ccc23)c1)S(=O)(=O)C1CC1 [Compound I-95],500 to 2500 nM,< 500 nM,50 to 500 nM,–,< 500 nM,< 500 nM
CCS(=O)(=O)Cc1ccc(Oc2cccc(OCCN3CCN(c4ncc(C(=O)N[C@H]5C(C)(C)[C@H](Oc6ccc(C#N)c(Cl)c6)C5(C)C)cn4)CC3)c2)c(-c2cn(C)c(=O)c3[nH]ccc23)c1 [Compound I-106],50 to 500 nM,–,< 50 nM,< 500 nM,< 500 nM,< 500 nM

# More lines, main results first:
Kd (BRD4-BD1),GI50 (VCaP cells; Homo sapiens),Kd (BRD4-BD2),GI50 (VCaP cells),SMILES,GI50 [1],GI50 [2]
> 2500 nM,–,500 to 2500 nM,< 500 nM,CCS(=O)(=O)Cc1ccc(Oc2cccc(OCCC3CCN(c4ncc(C(=O)N[C@H]5C(C)(C)[C@H](Oc6ccc(C#N)c(Cl)c6)C5(C)C)cn4)CC3)c2)c(-c2cn(C)c(=O)c3[nH]ccc23)c1 [Compound I-109],< 500 nM,< 500 nM
50 to 500 nM,–,< 50 nM,< 500 nM,CCS(=O)(=O)Cc1ccc(Oc2cccc(CCCN3CCN(c4ncc(C(=O)N[C@H]5C(C)(C)[C@H](Oc6ccc(C#N)c(Cl)c6)C5(C)C)cn4)CC3)c2)c(-c2cn(C)c(=O)c3[nH]ccc23)c1 [Compound I-133],< 500 nM,< 500 nM
> 2500 nM,1500 to 3000 nM,> 2500 nM,–,CCS(=O)(=O)c1ccc(Oc2cccc(OCCCC3CCN(c4ncc(C(=O)N[C@H]5C(C)(C)[C@H](Oc6ccc(C#N)c(Cl)c6)C5(C)C)cn4)CC3)c2F)c(-c2cn(C)c(=O)c3[nH]ccc23)c1 [Compound I-140],< 500 nM,< 500 nM
50 to 500 nM,–,< 50 nM,< 500 nM,CCS(=O)(=O)Cc1ccc(Oc2cccc(CCCN3CCN(c4ncc(C(=O)N[C@H]5C(C)(C)[C@H](Oc6ccc(C#N)c(Cl)c6)C5(C)C)cn4)CC3)c2F)c(-c2cn(C)c(=O)c3[nH]ccc23)c1 [Compound I-144],< 500 nM,< 500 nM
50 to 500 nM,< 500 nM,< 50 nM,–,CCS(=O)(=O)Nc1ccc(Oc2ccc(CCOC3CCN(c4ncc(C(=O)N[C@H]5C(C)(C)[C@H](Oc6ccc(C#N)c(Cl)c6)C5(C)C)cn4)CC3)cc2)c(-c2cn(C)c(=O)c3[nH]ccc23)c1 [Compound I-151],< 500 nM,< 500 nM
500 to 2500 nM,< 500 nM,< 50 nM,–,Cn1cc(-c2cc(NS(=O)(=O)CC(F)(F)F)ccc2Oc2cccc(OCCOC3CCN(c4ncc(C(=O)N[C@H]5C(C)(C)[C@H](Oc6ccc(C#N)c(Cl)c6)C5(C)C)cn4)CC3)c2F)c2cc[nH]c2c1=O [Compound I-153],< 500 nM,< 500 nM
50 to 500 nM,< 500 nM,50 to 500 nM,–,"CCS(=O)(=O)c1ccc(OC(COCCOC2CCN(c3ncc(C(=O)NC4C(C)(C)C(Oc5ccc(C#N)c(Cl)c5)C4(C)C)cn3)CC2)C2CC2)c(-c2cn(C)c(=O)c3[nH]ccc23)c1 (centres unmarked) [Compound I-186, N-[3-(3-chloro-4-cyano-phenoxy)-2,2,4,4-tetramethyl-cyclobutyl]-2-[4-[2-[2-cyclopropyl-2-[4-ethylsulfonyl-2-(6-methyl-7-oxo-1H-pyrrolo[2,3-c]pyridin-4-yl)phenoxy]ethoxy]ethoxy]-1-piperidyl]pyrimidine-5-carboxamide]",< 500 nM,< 500 nM
50 to 500 nM,–,500 to 2500 nM,< 500 nM,CCS(=O)(=O)Nc1ccc(OCC(OCCCOC2CCN(c3ncc(C(=O)N[C@H]4C(C)(C)[C@H](Oc5ccc(C#N)c(Cl)c5)C4(C)C)cn3)CC2)C2CC2)c(-c2cn(C)c(=O)c3[nH]ccc23)c1 (some centres unmarked) [Compound I-187],> 3000 nM,< 500 nM
